Reference: US20090069363A1, “Therapeutic Agent for Constipation” (SHIONOGI & CO. LTD. A LEGAL ENTITY OF JAPAN, priority 2004, published 2009)

Tests used:
[1] = tested on: morphine-induced gastrointestinal transit inhibition; assay: Influence on morphine-induced inhibitory action against transport competence of gastrointestinal tract (carbon powder transfer rate); type: in vivo; settings: mouse, 15 min before morphine 3 mg/kg s.c.
Method: After weighing each test compound, 0.5% methylcellulose (methylcellulose: Wako Pure Chemicals, water for injection: Otsuka Pharmaceutical Factory) was added, and the obtained mixture was well stirred to prepare solutions containing the test compound at final concentrations of 3 mg/mL, 1 mg/mL and 0.3 mg/mL, respectively.
After weighing each test compound, 5% xylitol (Kylit injection (registered trademark), Otsuka Pharmaceutical Factory) was added and the mixture was well stirred to prepare solutions containing the test compound at a final concentration of 1 mg/mL. The solutions having concentrations of 0.3 mg/mL and 0.1 mg/mL, respectively, were prepared by diluting the solution having the concentration of 1 mg/mL.
Preparation Method: After weighing, physiological saline was added and the mixture was well stirred to prepare a solution having a concentration of 0.3 mg/mL.
• Crj:CD-1(ICR) mouse (SPF, male, 5-week old, body weight: 25.6-32.0 g (oral administration), 26.3-33.0 g (subcutaneous administration), Charles River Laboratories Japan)
• Control Group: 8 animals; Solvent-administered Group: 8 animals; Compound 1: 3, 10 and 30 mg/kg Groups: each 8 animals; Compound 2: 3, 10 and 30. mg/kg Groups: each 8 animals; Compound 3: 3, 10 and 30 mg/kg Groups: each 8 animals
• Control Group: 8 animals, Solvent-administered Group: 8 animals; Compound 1: 3, 10 and 30 mg/kg Groups: each 8 animals; Compound 2: 3, 10 and 30 mg/kg Groups: each 8 animals; Compound 3: 3, 10 and 30 mg/kg Groups: each 8 animals
• Administration volume: 10 mL/kg • Administration Method: Oral administration was carried out using a disposable syringe and an oral feeding tube.
Subcutaneous administration was carried out using a disposable syringe and a disposable injection needle. • Administration Frequency: single
Mice fasted overnight from the evening on one day before the test were used. Each test compound was administered, and 15 minutes later, morphine (3 mg/kg) was subcutaneously administered. 30 minutes after the administration of morphine, carbon powder (a suspension containing 5% of carbon powder suspended in 10% gum Arabic) was orally administered to each mouse in an amount of 0.1 mL, and the transfer rate (the distance which the carbon powder reached/the distance between the pylorus to cecum opening×100) was measured at 30 minutes after the administration of carbon powder. To the solvent-administered group, a solvent (methylcellulose or xylitol) was administered in place of the test substance solution. To the control group, none of the test substance, morphine and the solvent was administered and the transfer rate of the carbon powder was measured.

[2] = tested on: morphine-induced small intestine transit inhibition; assay: Influence on morphine-induced small intestine transit inhibition (Evans blue test meal); type: in vivo; settings: rat
Method: Using aqueous 0.5 w/v % Evans blue solution, 2.5 w/v % carboxymethylcellulose salt solution was prepared and used as the test meal.
Male Wistar rats (Crj. Wistar, Charles River Laboratories Japan, 6 to 7-week old) were used. The rats were fasted from not less than 20 hours before the beginning of the test, and water was given ad libitum.
The compound (I-1) synthesized in Example 1 was dissolved in a solvent (DMAA/Solutol/5% meglumine=15/15/70) • DMAA: N,N-dimethylacetamide (Kanto Chemical) • Solutol: Solutol (registered trademark) HS15 (BASF) • Meglumine: D(−)-N-methylglucamin (Merck)
Morphine hydrochloric acid salt (Dainippon Pharma) was dissolved in normal saline.
All of the test substance, solvent and morphine were administered in avolume of 2 mL/kg.
Each test substance in an amount of 0.03, 0.1, 0.3, 1 or 3 mg/kg (Test Substance—administered Groups) or the above-described solvent (Solvent-administered Group) was subcutaneously administered, and 75 minutes later, 3 mg/kg of morphine was subcutaneously administered to all groups. […]
The test meal in an amount of 2 mL/rat was orally administered at 30 minutes after the administration of morphine. […] The distance between the cardia and the ileocecum (full length of small intestine), and the distance up to the tip of the pigment (moving distance of the pigment) were measured. […]

[3] = test substance 1 mg/kg subcutaneous
[4] = test substance 3 mg/kg subcutaneous
[5] = test substance 10 mg/kg subcutaneous

Compound	Transfer Rate of Carbon Powder (%) [1, 3] [%]	Transfer Rate of Carbon Powder (%) ([1]; test substance 3 mg/kg oral)	Transfer Rate of Carbon Powder (%) [1, 4] [%]	Transfer Rate of Carbon Powder (%) ([1]; test substance 10 mg/kg oral)	Transfer Rate of Carbon Powder (%) [1, 5] [%]	Transfer Rate of Carbon Powder (%) ([1]; test substance 30 mg/kg oral)	ED50 against morphine-induced small intestine transit inhibition ([2]; test substance s.c. 75 min before morphine 3 mg/kg s.c., calculated from % MPE) [mg/kg]	antagonistic action against morphine-induced small intestine transit inhibition ([2]; test substance s.c., morphine 3 mg/kg s.c.)
Cn1c2c(c3ccccc31)C[C@@]1(O)[C@H]3Cc4ccc(O)c5c4[C@@]1(CCN3CC1CC1)[C@H]2O5 [Compound 1]	41 ± 2	38 ± 2	43 ± 3	35 ± 2	46 ± 3	40 ± 2		
CCOC(=O)c1ccc2c3c([nH]c2c1)[C@@H]1Oc2c(O)ccc4c2[C@@]12CCN(CC1CC1)[C@H](C4)[C@]2(O)C3 [Compound 2]	35 ± 3	43 ± 2	53 ± 3	38 ± 2	55 ± 2	52 ± 3		
Cc1ccc(/C=C2\C[C@@]3(O)[C@H]4Cc5ccc(O)c6c5[C@@]3(CCN4CC3CC3)[C@@H](O6)C2=O)cc1 [Compound 3]	32 ± 2		43 ± 1		53 ± 3			
O=C(O)c1ccc2c3c([nH]c2c1)[C@@H]1Oc2c(O)ccc4c2[C@@]12CCN(CC1CC1)[C@H](C4)[C@]2(O)C3 [Compound I-1, 17-cyclopropylmethyl-6,7-didehydro-4,5α-epoxy-3,14β-dihydroxy-6′-carboxy-6,7-2′,3′-indolomorphinan]							0.29	exhibited antagonistic action
